ChEMBL document CHEMBL1201862, “PubChem BioAssay data set” (2004)
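Method: 48-hour compound exposure of cells in 96-well plates, five concentrations, linear interpolation of endpoints. GI50 is the concentration that inhibits growth by half.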 Calls of active or inactive are those of the source. Rule as the data show it: active = GI50 up to about 1.1 µM and inactive = higher.

Key:
Assay in all cases: NCI tumour cell line growth inhibition, 48 h
SF-539 = system: SF-539
SK-MEL-28 = system: SK-MEL-28
OVCAR-4 = system: OVCAR-4
K562 = system: K562
NCI-H460 = system: NCI-H460
LOX IMVI = system: LOX IMVI
MOLT-4 = system: MOLT-4
SN12C = system: SN12C
IGROV-1 = system: IGROV-1
SK-MEL-5 = system: SK-MEL-5
SF-268 = system: SF-268
RPMI-8226 = system: RPMI-8226
SK-MEL-2 = system: SK-MEL-2
HCT-116 = system: HCT-116
HOP-92 = system: HOP-92
U-251 = system: U-251
UACC-62 = system: UACC-62
HL-60 = system: HL-60
A498 = system: A498
ACHN = system: ACHN

SMILES	GI50 (SF-539)	GI50 (SK-MEL-28)	GI50 (OVCAR-4)	GI50 (K562)	GI50 (NCI-H460)	GI50 (LOX IMVI)	GI50 (MOLT-4)	GI50 (SN12C)	GI50 (IGROV-1)	GI50 (SK-MEL-5)	GI50 (SF-268)	GI50 (RPMI-8226)	GI50 (SK-MEL-2)	GI50 (HCT-116)	GI50 (HOP-92)	GI50 (U-251)	GI50 (UACC-62)	GI50 (HL-60)	GI50 (A498)	GI50 (ACHN)
O=NN1C(c2ccccc2)CCCC1c1ccccc1 (configuration not stated)	> 100 µM (inactive)	> 100 µM (inactive)	35.9 µM (inactive)	35.9 µM (inactive)	43.9 µM (inactive)	74.8 µM (inactive)	27.9 µM (inactive)	> 100 µM (inactive)	> 89.7 µM (inactive)	49.4 µM (inactive)	> 100 µM (inactive)	21.7 µM (inactive)	45.9 µM (inactive)	47.9 µM (inactive)	36.4 µM (inactive)	75.5 µM (inactive)	> 94.8 µM (inactive)	26.8 µM (inactive)	15.1 µM (inactive)	
C=CCN1/C(=C(\C#N)c2nc3ccccc3[nH]2)Sc2c1nc[nH]c2=O	> 100 µM (inactive)	> 100 µM (inactive)	> 100 µM (inactive)	> 100 µM (inactive)	> 100 µM (inactive)		> 100 µM (inactive)	> 100 µM (inactive)	> 100 µM (inactive)	> 100 µM (inactive)	> 100 µM (inactive)	> 100 µM (inactive)	> 100 µM (inactive)	> 100 µM (inactive)	> 100 µM (inactive)	80.5 µM (inactive)	> 100 µM (inactive)	> 100 µM (inactive)	> 100 µM (inactive)	> 100 µM (inactive)
CC(OC(C)(C)C)[C@H](NC(=O)OCC(Cl)(Cl)Cl)C(=O)O (some centres not stated)	> 100 µM (inactive)	> 100 µM (inactive)	> 100 µM (inactive)	> 100 µM (inactive)	> 100 µM (inactive)		> 100 µM (inactive)	> 100 µM (inactive)	> 100 µM (inactive)	> 100 µM (inactive)	> 100 µM (inactive)	> 100 µM (inactive)	> 100 µM (inactive)	> 100 µM (inactive)	> 100 µM (inactive)	> 100 µM (inactive)	> 100 µM (inactive)	> 100 µM (inactive)	> 100 µM (inactive)	> 100 µM (inactive)
Cc1ccc(-c2cc(-c3ccco3)c(C#N)c(=O)n2C2OC(CO)C(O)C(O)C2O)cc1 (configuration not stated)		37 µM (inactive)	35.7 µM (inactive)	> 100 µM (inactive)	37.1 µM (inactive)	68.1 µM (inactive)	> 100 µM (inactive)	46.3 µM (inactive)	49.1 µM (inactive)	22 µM (inactive)	53 µM (inactive)	73.3 µM (inactive)		94.8 µM (inactive)		33.3 µM (inactive)	42.3 µM (inactive)	> 100 µM (inactive)	21.6 µM (inactive)	42.9 µM (inactive)
O=C(CC(C(=O)c1cccs1)c1ccc2c(c1)OCO2)c1ccc(Br)cc1 (configuration not stated)		> 100 µM (inactive)	> 100 µM (inactive)	> 100 µM (inactive)	> 100 µM (inactive)		> 100 µM (inactive)	> 100 µM (inactive)	> 100 µM (inactive)	> 100 µM (inactive)	> 100 µM (inactive)	> 100 µM (inactive)				> 100 µM (inactive)	> 100 µM (inactive)	> 100 µM (inactive)	> 100 µM (inactive)	> 100 µM (inactive)
COc1ccc2c(c1)CCN=C2Cc1cc(OC)c(OC)cc1CCCl	16.2 µM (inactive)	66.2 µM (inactive)	> 100 µM (inactive)	81.1 µM (inactive)	69.8 µM (inactive)	31.9 µM (inactive)	54.8 µM (inactive)	48.4 µM (inactive)	52.4 µM (inactive)	17.5 µM (inactive)	48.6 µM (inactive)	55 µM (inactive)	> 100 µM (inactive)	44.5 µM (inactive)	11.1 µM (inactive)	86.7 µM (inactive)	53.8 µM (inactive)			57 µM (inactive)
N#CC1(C#N)C(=O)c2ccncc2C1=O	> 100 µM (inactive)	> 100 µM (inactive)	> 100 µM (inactive)	> 100 µM (inactive)	> 100 µM (inactive)			> 100 µM (inactive)	> 100 µM (inactive)	> 100 µM (inactive)	> 100 µM (inactive)	> 100 µM (inactive)	> 100 µM (inactive)	> 100 µM (inactive)	> 100 µM (inactive)	> 100 µM (inactive)	> 100 µM (inactive)	> 100 µM (inactive)	> 100 µM (inactive)	> 100 µM (inactive)
CN1NC(c2ccccc2)=C(C#N)C(=O)CC1c1ccc(Br)cc1 (configuration not stated)		48 µM (inactive)	45.6 µM (inactive)		33.3 µM (inactive)	35.4 µM (inactive)		44.9 µM (inactive)		14.2 µM (inactive)	35.9 µM (inactive)	37.8 µM (inactive)	28.3 µM (inactive)	36.8 µM (inactive)	35.2 µM (inactive)	> 10 µM (inactive)		29 µM (inactive)	40.4 µM (inactive)	34 µM (inactive)
O=C1NC2=C(CCCC/C2=N\O)C12CCCCC2	> 100 µM (inactive)	> 100 µM (inactive)	> 100 µM (inactive)	> 100 µM (inactive)	> 100 µM (inactive)	> 100 µM (inactive)	57.8 µM (inactive)	> 100 µM (inactive)	> 100 µM (inactive)		> 100 µM (inactive)			> 100 µM (inactive)		> 100 µM (inactive)	> 100 µM (inactive)	32.7 µM (inactive)	> 100 µM (inactive)	> 100 µM (inactive)
COc1cc(/C=C/C(=O)C(C)(C)C)cc(OC)c1OC	33.3 µM (inactive)	63 µM (inactive)	14.8 µM (inactive)	37.6 µM (inactive)	25.5 µM (inactive)	19.7 µM (inactive)	32.8 µM (inactive)	34.3 µM (inactive)		42.3 µM (inactive)	33.9 µM (inactive)	34.3 µM (inactive)	32.7 µM (inactive)	29.9 µM (inactive)	41.1 µM (inactive)	37.8 µM (inactive)	36.9 µM (inactive)	21.1 µM (inactive)		39.7 µM (inactive)
COC(=O)C12CC3CC(CC(C(=O)O)(C3)C1)C2	> 100 µM (inactive)	> 100 µM (inactive)	> 100 µM (inactive)	> 100 µM (inactive)	> 100 µM (inactive)	> 100 µM (inactive)	> 100 µM (inactive)	> 100 µM (inactive)	> 100 µM (inactive)	> 100 µM (inactive)	> 100 µM (inactive)	> 100 µM (inactive)		> 100 µM (inactive)	> 100 µM (inactive)	> 100 µM (inactive)	> 100 µM (inactive)	> 100 µM (inactive)	> 100 µM (inactive)	> 100 µM (inactive)
CCOC(=O)c1ccc(N(CCOS(=O)(=O)c2ccc(C)cc2)CCOS(=O)(=O)c2ccc(C)cc2)cc1	< 0.01 µM (active)		32.8 µM (inactive)	> 100 µM (inactive)	4.66 µM (inactive)	> 100 µM (inactive)	2.7 µM (inactive)	< 0.01 µM (active)	> 100 µM (inactive)	> 100 µM (inactive)	> 100 µM (inactive)	10 µM (inactive)	19.8 µM (inactive)	27.3 µM (inactive)	> 100 µM (inactive)	6.76 µM (inactive)	> 100 µM (inactive)		> 100 µM (inactive)	6.78 µM (inactive)
Cc1ccc(Nc2n[nH]c(NS(=O)(=O)c3cc(C(=O)Nc4ccc(Cl)cc4)c(Cl)cc3S)n2)cc1	> 100 µM (inactive)	> 100 µM (inactive)	> 100 µM (inactive)	> 100 µM (inactive)	36 µM (inactive)	48.4 µM (inactive)	> 100 µM (inactive)	> 100 µM (inactive)	> 100 µM (inactive)	> 100 µM (inactive)	> 100 µM (inactive)	> 100 µM (inactive)		> 100 µM (inactive)		54.8 µM (inactive)	> 100 µM (inactive)	33.7 µM (inactive)		> 100 µM (inactive)
CC(=O)O[C@]12CCCCCC1C1(O)C(O)CCCC[C@H]12 (some centres not stated)		> 100 µM (inactive)	> 100 µM (inactive)	> 100 µM (inactive)	> 100 µM (inactive)	> 100 µM (inactive)	> 100 µM (inactive)	> 100 µM (inactive)		> 100 µM (inactive)	> 100 µM (inactive)	> 100 µM (inactive)	> 100 µM (inactive)			> 100 µM (inactive)	> 100 µM (inactive)	> 100 µM (inactive)		> 100 µM (inactive)
O=S(=O)(O)c1ccc(/N=N\c2ccc(/N=N/c3ccc(/C=C/c4ccc(/N=[N+](\[O-])c5ccc(/C=C/c6ccc(/N=N/c7ccc(/N=N/c8ccc(S(=O)(=O)O)cc8)c8ccccc78)cc6S(=O)(=O)O)c(S(=O)(=O)O)c5)cc4S(=O)(=O)O)c(S(=O)(=O)O)c3)c3ccccc23)cc1	> 84.7 µM (inactive)	> 100 µM (inactive)	> 100 µM (inactive)	> 100 µM (inactive)	> 100 µM (inactive)	> 100 µM (inactive)	> 100 µM (inactive)	> 100 µM (inactive)	32.3 µM (inactive)	> 100 µM (inactive)	> 100 µM (inactive)	> 100 µM (inactive)	> 100 µM (inactive)	> 100 µM (inactive)	> 81.1 µM (inactive)	> 91.4 µM (inactive)	> 100 µM (inactive)	> 100 µM (inactive)	> 100 µM (inactive)	
